Patent publication US20180317415A1, “NANOBIONIC LIGHT EMITTING PLANTS” (MASSACHUSETTS INSTITUTE OF TECHNOLOGY, priority 2015, published 2018)

Tests used:
firefly luciferase = firefly luciferase (Photinus pyralis, UniProt P08659); conditions: strong inhibitor of the luciferase; read-out: IC50 as inhibitor of light production; cited from earlier work
living watercress plant = experiment: light emission in living watercress plant after LIN/PBIN infiltration of nanoparticles; type: in vivo, watercress (Nasturtium officinale); conditions: 1-2 hours compared to 30 minutes incubation of SNP-Luc (LIN) before free luciferin 0.1 mM
Experimental: Leaf discs of spinach plants 3 week-olds were infiltrated with 30 mM HEPES buffer (pH 7.4) via PBIN at speed of 0.4 bar/s and cell membranes were stained with FM 464 fluorescent dye (red).
SNP-Luc was infiltrated by LIN 1 h in advance, and PLGA-LH alone or PLGA-LH and CS-CoA were infused into a watercress plant by PBIN. […] To extend the illumination time, the third nanoparticle class, CS-CoA, was co-infiltrated with PLGA-LH by PBIN. […] In FIG. 3E, a and b represent concentration of SNP-Luc (μM) and concentration of PLGA-LH2 (mM), respectively. […] Maximum number of photons/sec was obtained from the first photo (analyzed by Image J). […]
Infiltration of nanoparticles in living plants. […] The pressure was monitored by digital hydronic manometer (Dwyer instruments, IN, USA). […]
Estimation of photon numbers from light emitting plants. The power of LED light was first measured at 12.70 cm away using a photo-detector (λ=530 nm, detector surface area=1 cm^2) (PM100, ThorLabs, NJ, USA). The number of photons incident on the photo-detector was determined using the measured power (10 nW) divided by the energy of a single photon at 530 nm, given by the equation below
An image of the LED light was taken at 68.58 cm of distance with 1/1000 s exposure to avoid saturation of pixels and converted into quantitative values using ImageJ (Mean value=0.016).

[1] = system: firefly luciferase-luciferin reaction; experiment: light production and light duration in vitro (test tube mixture, photos analysed by Image J); type: biochemical; conditions: for light duration extended by: PLGA-LH2 1 mM, CS-CoA 625 μM

Chain of firefly luciferase (P08659 whole entry): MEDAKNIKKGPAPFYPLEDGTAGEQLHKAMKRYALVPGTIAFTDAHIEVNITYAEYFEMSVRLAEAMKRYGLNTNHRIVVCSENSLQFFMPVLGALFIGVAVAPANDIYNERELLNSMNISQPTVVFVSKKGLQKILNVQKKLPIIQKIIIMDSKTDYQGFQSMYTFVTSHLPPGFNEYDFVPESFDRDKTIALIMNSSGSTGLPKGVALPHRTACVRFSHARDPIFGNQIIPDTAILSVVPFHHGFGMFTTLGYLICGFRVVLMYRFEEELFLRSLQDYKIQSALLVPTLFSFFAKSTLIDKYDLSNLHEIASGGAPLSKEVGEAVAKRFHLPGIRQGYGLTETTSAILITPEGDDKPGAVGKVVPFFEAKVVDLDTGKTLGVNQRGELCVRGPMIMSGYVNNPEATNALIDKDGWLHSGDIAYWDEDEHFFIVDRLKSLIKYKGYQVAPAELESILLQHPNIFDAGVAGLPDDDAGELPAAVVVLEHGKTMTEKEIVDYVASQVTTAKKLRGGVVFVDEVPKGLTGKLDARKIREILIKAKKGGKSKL

Compound	IC50 (firefly luciferase) [nM]	initial number of photons, times higher (living watercress plant) [times]	light duration extended by ([1]; 200 nM SNP-Luc) [h]	light duration extended by ([1]; 4 μM SNP-Luc) [h]	light duration compared with free luciferase ([1]; 1 mL mixture, 12 nM luciferase, 100 μM luciferin, 100 μM ATP)
Nc1ncnc2c1ncn2C1OC(COP(=O)(O)OC(=O)c2csc(-c3nc4ccc(O)cc4s3)n2)C(O)C1O (centres unmarked) [dehydroluciferyl-adenylate]	5	–	–	–	–
SNP-Luc: firefly luciferase immobilized on 7 nm GPTS-PEG amine silica nanoparticles	–	4 to 7	22	6	longer light duration than that of free luciferase
